In PubChem BioAssay (NCI):
Where “and” joins values, the source holds several entries; their conditions need not be identical. Equal values may be shown once.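 Each compound was tested at five concentrations against cells in 96-well plates for 48 hours. At the GI50, growth is halved. TGI is the concentration that stops growth completely.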

Experiments:
Assay in all cases: inhibition of tumour cell growth, NCI panel, 48 h
COLO 205 colon = tested on: COLO 205 colon
EKVX NSCLC = tested on: EKVX NSCLC
HCT-116 colon = tested on: HCT-116 colon
M14 melanoma = tested on: M14 melanoma
MDA-N = tested on: MDA-N
PC-3 prostate = tested on: PC-3 prostate
RXF 393 renal = tested on: RXF 393 renal
SK-MEL-28 melanoma = tested on: SK-MEL-28 melanoma
SNB-75 CNS = tested on: SNB-75 CNS
SR leukemia = tested on: SR leukemia

Row | SMILES | TGI (COLO 205 colon) | GI50 (EKVX NSCLC) | TGI (EKVX NSCLC) | TGI (HCT-116 colon) | GI50 (M14 melanoma) | TGI (M14 melanoma) | TGI (MDA-N) | TGI (PC-3 prostate) | GI50 (RXF 393 renal) | TGI (RXF 393 renal) | TGI (SK-MEL-28 melanoma) | TGI (SNB-75 CNS) | TGI (SR leukemia) | GI50 (PC-3 prostate) | GI50 (SK-MEL-28 melanoma) | GI50 (SNB-75 CNS)
1 | COc1ccccc1N=Nc1c(O)ccc2ccccc12 | > 100 µM | 4.42 µM and 19.5 µM | 36.2 µM and 96.1 µM | > 100 µM | 33.6 µM and 85 µM | > 100 µM | > 100 µM | > 100 µM | 12.3 µM and 28.7 µM | 35.3 µM and 59.7 µM | > 100 µM | 41.8 µM and 39.7 µM | > 100 µM | – | – | –
2 | C[n+]1c2ccccc2n2c3ccccc3c(NCCCn3ccnc3)c(C#N)c21 | 4.4 µM | – | 24.1 µM | 10.1 µM | – | 5.23 µM | 9.82 µM | 9.62 µM | – | 3.48 µM | 13.3 µM | 4.66 µM | > 100 µM | – | – | –
3 | COc1ccc(S(=O)(=O)NC(CCC(=O)NC(N)=O)C(=O)NC(N)=O)cc1 (stereo not given) | > 100 µM | – | > 100 µM | > 100 µM | – | > 100 µM | > 100 µM | > 100 µM | – | – | > 100 µM | > 100 µM | > 100 µM | – | – | –
4 | O=C(/C=C\c1ccccc1)Oc1ccc(/C=C2\CCC/C(=C\c3ccc(OC(=O)/C=C\c4ccccc4)cc3)C2=O)cc1 | > 100 µM | – | > 100 µM | > 100 µM | – | > 100 µM | > 100 µM | > 100 µM | – | – | > 100 µM | > 100 µM | > 100 µM | – | – | –
5 | CC(C)Oc1cccc(N2C(CCc3c[nH]c4ccc(Br)cc34)=NS(=O)(=O)c3cnccc32)c1 | 41.9 µM | – | > 100 µM | > 100 µM | – | > 100 µM | > 100 µM | > 100 µM | – | > 100 µM | > 100 µM | > 100 µM | > 100 µM | – | – | –
6 | O=c1[nH]c2c(Nc3c4ccccc4nc4ccccc34)c([N+](=O)[O-])c(Nc3c4ccccc4nc4ccccc34)c([N+](=O)[O-])c2[nH]1 | 5.02 µM | – | 5.2 µM | 8.45 µM | – | 4.76 µM | 8.49 µM | 5.97 µM | – | 7.19 µM | 11.3 µM | 7.79 µM | 4.07 µM | – | – | –
7 | COc1cc(C=O)cc(C=Nc2ccc(Br)cc2)c1O | 36.3 µM | – | > 100 µM | > 100 µM | – | 14.2 µM | 35.7 µM | 50.5 µM | – | 15 µM | > 100 µM | > 100 µM | 40.8 µM | – | – | –
8 | Nc1c(C(=O)O)c2ccc([N+](=O)[O-])cc2c(=O)n1-c1nc2ccccc2s1 | > 100 µM | – | > 100 µM | > 100 µM | – | > 100 µM | > 100 µM | > 100 µM | – | > 100 µM | > 100 µM | > 100 µM | > 100 µM | – | – | –
9 | COc1ccc(O[C@H](CO)C[C@@H]2COC(C)(C)O2)cc1 | > 100 µM | – | > 100 µM | > 100 µM | – | > 100 µM | > 100 µM | > 100 µM | – | > 100 µM | > 100 µM | > 100 µM | > 100 µM | – | – | –
10 | CC(C)OC(=O)C(NC(=O)C(CC(=O)OCc1ccccc1)NC(=O)OCc1ccccc1)NC(=O)C1C(C)(C)CCC1(C)C (stereo not given) | 9.27 µM | – | 12.2 µM | 12 µM | – | > 57.1 µM | 24.2 µM | 11.2 µM | – | 12.7 µM | > 56.2 µM | 11.5 µM | 7.5 µM | – | – | –
11 | CN(Cc1cnc2nc(N)nc(N)c2n1)c1ccc(C(=O)NC(CCC(=O)O)C(=O)O)c2ccccc12 (stereo not given) | – | > 1000 µM | > 1000 µM | > 1000 µM | – | > 1000 µM | > 1000 µM | > 1000 µM | > 1000 µM | > 1000 µM | – | – | > 1000 µM | 89.8 µM | 0.0616 µM | > 85.6 µM
12 | COc1cccc2c(=O)oc(-c3ccccc3C)nc12 | > 100 µM | – | > 100 µM | > 100 µM | – | – | 39.1 µM | > 100 µM | – | > 100 µM | > 100 µM | > 100 µM | > 100 µM | – | – | –
13 | COc1ccc(C2C(=O)c3ccc(OC)cc3OC2c2cccnc2)cc1 (stereo not given) | > 100 µM | – | > 100 µM | > 100 µM | – | > 100 µM | > 100 µM | > 100 µM | – | > 100 µM | > 100 µM | > 100 µM | > 100 µM | – | – | –
14 | CN(C)c1cccc2c(S(=O)(=O)NCCN)cccc12 | > 100 µM | – | > 100 µM | > 100 µM | – | > 100 µM | > 100 µM | > 100 µM | – | > 100 µM | > 100 µM | 64.1 µM | > 100 µM | – | – | –
15 | COC(=O)C(Cc1ccccc1)NC(=O)C(CNC(=O)OCc1ccccc1)C(=O)OCc1ccccc1 (stereo not given) | > 100 µM | – | – | > 100 µM | > 100 µM and 10.2 µM | > 100 µM and 26.8 µM | > 100 µM | > 100 µM | – | 34.1 µM | > 100 µM and 41.7 µM | > 100 µM | > 100 µM | – | > 100 µM and 20.8 µM | –
16 | CCc1c(O)nc(Nc2nc3ccccc3[nH]2)[nH]c1=O | > 100 µM | – | – | > 100 µM | – | > 100 µM | > 100 µM | > 100 µM | – | > 100 µM | > 100 µM | > 100 µM | > 100 µM | – | – | –
17 | COc1ccc2oc(=O)c(-c3cc4c(c(C)n3)c(=O)oc3ccc(OC)cc34)cc2c1 | > 100 µM | – | > 100 µM | > 100 µM | – | > 100 µM | > 100 µM | > 100 µM | – | > 100 µM | > 100 µM | > 100 µM | > 100 µM | – | – | –
18 | CC[C@]1(c2ccc3c(c2)OCO3)C=[N+]([O-])O[C@H](OC2CCCC2(c2ccccc2)c2ccccc2)[C@@H]1OC(C)=O (stereo not given in full) | 5.07 µM | – | 12.8 µM | 3.67 µM | – | 4.84 µM | > 30.2 µM | 13.1 µM | – | 2.63 µM | – | 5.93 µM | > 21.7 µM | – | – | –
19 | COc1cc2c(cc1O)C(Cc1ccc(OCc3ccccc3)c(OCc3ccccc3)c1)N(C(=O)NCCc1ccccc1)CC2 (stereo not given) | > 100 µM | – | > 100 µM | > 100 µM | – | > 100 µM | > 100 µM | > 100 µM | – | > 100 µM | – | > 100 µM | > 100 µM | – | – | –
20 | Cc1n[nH]c(=O)n1-n1cccc1 | > 100 µM | – | > 100 µM | > 100 µM | – | > 100 µM | > 100 µM | > 100 µM | – | > 100 µM | > 100 µM | > 100 µM | > 100 µM | – | – | –
